Measurements as given in patent US20240158447A1, “PEPTIDES FOR USE IN THE TREATMENT OR PREVENTION OF MYOCARDIAL DAMAGE” (THE UNIVERSITY OF WESTERN AUSTRALIA, priority 2020, published 2024).
“Also recorded” adds a separate entry of the source.

Columns and labels:
[1] = system: wildtype cardiac myocytes; assay: Mitochondrial flavoprotein oxidation after BayK(−), wildtype cardiac myocytes (Example 6); assay type: cell-based, mouse; conditions: wild type hearts, FIG. 4
Protocol: (§1) Adult male C57BL/6J mice were anesthetized with pentobarbitone sodium (240 mg/kg) via intraperitoneal injection prior to excision of the heart. Ventricular myocytes were isolated. Mouse hearts were cannulated onto a Langendorff apparatus via the aorta and perfused retrogradely with Krebs-Henseleit Buffer (KHB) containing (in mM): 120 NaCl, 25 NaHCO3, 4.8 KCl, 2.2 MgSO4, 1.2 NaH2PO4 and 11 glucose (pH=7.35 with O2/CO2 at 37° C.) for 4 min at 37° C. Hearts were then perfused with KHB supplemented with 2.4 mg/ml collagenase B for 3 min, then 8 min perfusion in the presence of 40 μM calcium. Following perfusion, aorta and atria were removed, and ventricles gently teased apart and triturated to dissociate myocytes into suspension. […]
(§2) All in vitro studies were performed in freshly isolated myocytes at 37° C. […] Following a 20 min incubation with 0.5-1 μM AID(S)-TAT, AID-TAT, peptide 6 or peptide 7, fluorescent signal of individual myocytes was quantified using Metamorph 6.3 to measure signal intensity of manually traced cell regions. […]
Autofluorescence was used to measure flavoprotein oxidation in cardiac myocytes based on previously described methods (480 nm ex, 535 nm em). […] Fluorescence was reported as a percentage from the baseline pre-treatment average.

[2] = system: wild type cardiac myocytes; assay: Intracellular calcium (Fura-2) after H2O2 in cardiac myocytes; assay type: cell-based, mouse; conditions: 20 min incubation with 0.5-1 μM peptide; 30 μM H2O2 5 min; FIG. 3(a)
Protocol: as §1, with “calcium.” for “calcium. Following perfusion, aorta and atria were removed, and ventricles gently teased apart and triturated to dissociate myocytes into suspension.”
as §2
Intracellular calcium was monitored in cardiac myocytes using the fluorescent indicator Fura-2 AM (Fura-2, 1 μM, ex 340/380 nm, em 510 nm, Molecular Probes). […] Fluorescence at 340/380 nm excitation and 510 nm emission were measured at 1 minute intervals with an exposure of 50 ms before and after exposure to 30 μM H2O2 (5 min) and 10 U/ml catalase (5 min). Ratiometric 340/380 nm signal was quantified and reported as a percentage from the baseline pre-treatment average.

[3] = biological target: T1, L-type Ca^2+ channel β2 subunit (Homo sapiens, UniProt Q08289); assay: Binding competition assay of variant peptides for the β2 subunit (AID-coated beads, heart lysate, SDS-PAGE); conditions: competition with bead-bound AID peptide, whole heart lysate, immunoblot densitometry; FIG. 2
T1 construct: from tissue; host or cells: whole heart (cardiac) lysate
T1 sequence (Q08289 whole entry): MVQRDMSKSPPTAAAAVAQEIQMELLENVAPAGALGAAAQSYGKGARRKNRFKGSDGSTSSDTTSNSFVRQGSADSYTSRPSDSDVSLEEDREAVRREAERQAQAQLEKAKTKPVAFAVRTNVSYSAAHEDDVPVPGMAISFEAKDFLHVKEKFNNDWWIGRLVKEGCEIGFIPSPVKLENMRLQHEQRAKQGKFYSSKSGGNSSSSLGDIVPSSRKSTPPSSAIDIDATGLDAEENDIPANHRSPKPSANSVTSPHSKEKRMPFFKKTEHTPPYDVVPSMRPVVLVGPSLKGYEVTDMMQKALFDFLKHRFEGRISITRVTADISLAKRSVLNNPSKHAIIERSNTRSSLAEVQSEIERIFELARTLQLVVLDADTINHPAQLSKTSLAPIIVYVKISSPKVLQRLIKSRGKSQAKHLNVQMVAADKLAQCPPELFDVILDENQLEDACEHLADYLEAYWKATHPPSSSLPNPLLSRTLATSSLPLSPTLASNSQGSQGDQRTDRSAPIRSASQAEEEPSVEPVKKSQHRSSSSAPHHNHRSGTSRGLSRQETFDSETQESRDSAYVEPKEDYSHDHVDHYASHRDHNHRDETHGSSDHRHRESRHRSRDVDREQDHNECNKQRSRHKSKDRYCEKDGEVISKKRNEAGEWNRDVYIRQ
Protocol: The affinity of each of the variant peptides to the β2 subunit was investigated through binding competition assays.
PureProteome™ NHS FlexiBind Magnetic Beads (Cat. #LSKMAGN04, Merck) were used following manufacturer recommendations. Aminohexanoic acid linked AID peptide was bound to the NHS flexibind magnetic beads at a concentration of more than 2 mg/mL to obtain saturation of the beads with peptide. Beads were first primed with an equilibration buffer (1 mM HCL) to prepare them for binding. The Ahx-AID peptide was dissolved in wash/coupling buffer (PBS, pH 7.4) and added to the beads. The beads-AID peptide mixture was left to mix uniformly on a multiplate shaker at a speed of 300 rpm at room temperature for 2 hours. To reduce non-specific binding the beads were incubated in Quench Buffer (100 mM Tris-HCl, 150 mM NaCl, pH 8.0) at room temperature for 1 hour.
The AID-peptide bound beads were split into 5 aliquots for the 5 samples prepared in Table 5. The whole heart lysate added to each of the peptide-bound beads to allow competitive binding for 2 hours at room temperature.
Upon completion, the conjugate was washed in coupling buffer, to remove unbound fraction. SDS sample buffer was added to the beads, with the tubes then heated for 5 minutes at 95° C. The eluted sample stored at −20° C. to be run through sodium dodecyl sulfate-polyacrymalide gel electrophoresis (SDS-PAGE) to determine the binding affinity of each of the variants.
The use of streptavidin dynabeads and biotinylated peptide was developed to improve the binding affinity assays. The peptide was initially biotinylated using EZ-link amine-PEG11-biotin (Spacer arm: 53.2 Å, Thermofisher Scientific, Cat. #26136) which was dissolved in 0.1M MES buffer ((2-N-morpholino)-ethanesulfonic acid) at a concentration of 1 mM. Just prior to the reaction, 0.1M EDC (N-(3-Dimethylaminopropyl)-N′-ethylcarbodiimide hydrochloride) was dissolved in MES buffer. In order to achieve complete biotinylation of the AID peptide, a 50× molar excess of biotin to peptide was required, with the total volumes of each component required shown in Table 6.
Each 78 μL aliquot of the biotinylated peptide shown in […] was enough for 6 reactions, covering the range of concentrations in which the heart lysate was again prepared with varying concentrations of the variant AID peptides according to Table 7.
The 78 μL aliquot of biotinylated AID-peptide was mixed with streptavidin dynabeads (1 mg Dynabeads per every 200 pmol biotinylated peptide) for half an hour at room temperature. The heart lysate ([…]) was incubated with the variant peptides at room temperature for 2 hours. After removing all unbound peptide from the beads, they were mixed with the pre-bound heart lysate for 2 hours at room temperature. The unbound fraction was removed. […]

[4] = system: wild type cardiac myocytes; assay: Intracellular superoxide (DHE) after H2O2 in cardiac myocytes; assay type: cell-based, mouse; conditions: 20 min incubation with 0.5-1 μM peptide; 30 μM H2O2 5 min; FIG. 3(b)
Protocol: as §1, §2
Superoxide generation was assessed in cardiac myocytes using the fluorescent indicator dihydroethidium (DHE, 5 μM, 515-560 nm ex filter, 590 long pass em, Merck). […] Fluorescence was reported as percentage change in the slope of the signal measured at 20-40 min (treatment) over 1-10 min (pre-treatment).

[5] = system: myocytes isolated from cTnI-G203S mutant mouse hearts; assay: Mitochondrial flavoprotein oxidation after BayK(−), myocytes from HCM hearts (Example 6); assay type: cell-based; conditions: FIG. 5
Protocol: FIG. 5 presents the effect of mutant peptides on flavoprotein oxidation, a measure of metabolic activity and oxygen consumption in myocytes isolated from cTnI-G203S mutant mouse hearts that are hypertrophic.
All in vitro studies were performed in freshly isolated myocytes at 37° C. […] Following a 20 min incubation with 0.5-1 μM AID(S)-TAT, AID-TAT, peptide 6 or peptide 7, fluorescent signal of individual myocytes was quantified using Metamorph 6.3 to measure signal intensity of manually traced cell regions. An equivalent region not containing cells was used for background and was subtracted.
Autofluorescence was used to measure flavoprotein oxidation in cardiac myocytes based on previously described methods (480 nm ex, 535 nm em). Fluorescent images were taken at 1 min intervals with 1 s exposure before and after exposure to L-type Ca2+ channel agonist BayK(−). Fluorescence was reported as a percentage from the baseline pre-treatment average.

QQQEEDLKGYLDWITQAE (Variant P7)
flavoprotein oxidation in comparison with AID-TAT peptide [1]: statistically significant reduction in flavoprotein oxidation in comparison with AID-TAT peptide | H2O2 induced increase in intracellular Ca2+ (Fura 2) [2]: altered the increase in Fura 2 following H2O2; also recorded: more effective at decreasing H2O2 induced increases in intracellular Ca^2+ (Fura 2) and superoxide production (DHE) than AID-TAT | binding affinity (K0.5) for the target β2 subunit versus the original AID peptide [3]: greater binding affinity (lower K0.5) | H2O2 induced superoxide production (DHE) [4]: more effective at decreasing H2O2 induced increases in intracellular Ca^2+ (Fura 2) and superoxide production (DHE) than AID-TAT | flavoprotein oxidation in comparison with AID-TAT peptide [5]: statistically significant reduction in flavoprotein oxidation in comparison with AID-TAT peptide
